Measured values taken from ChEMBL document CHEMBL5335829, “Akedanones A-C, In Vitro and In Vivo Antiplasmodial 2,3-Dihydronaphthoquinones Produced by Streptomyces sp. K20-0187” (J Nat Prod, 2024).
In brackets after ≈: the same amount, converted by molar mass. Activity calls are given as the source filed them. The rule behind the calls is not given here.

What was measured:
[1] = Cytotoxicity against human MRC5 cells assessed as inhibition of cell growth; assay type: toxicity, cell-based
[2] = Selectivity index, ratio of IC50 for cytotoxicity against human MRC5 cells assessed as inhibition of cell growth to IC50 for antimalarial activity against chloroquine-resistant Plasmodium falciparum K1 assessed as parasite growth inhibition; assay type: toxicity, cell-based; conditions: MRC5 cells versus Plasmodium falciparum K1, read-out: Ratio IC50
[3] = Selectivity index, ratio of IC50 for cytotoxicity against human MRC5 cells assessed as inhibition of cell growth to IC50 for antimalarial activity against […] assessed as parasite growth inhibition; assay type: toxicity, cell-based; conditions: MRC5 cells versus Plasmodium falciparum FCR3, read-out: Ratio IC50
Plasmodium falciparum [4] = assay: Antimalarial activity against chloroquine-resistant Plasmodium falciparum K1 assessed as parasite growth inhibition; assay type: functional, organism-based
[5] = Selectivity index, ratio of IC50 for cytotoxicity against human MRC5 cells assessed as inhibition of cell growth to IC50 for antiplasmodial activity against […] assessed as parasite growth inhibition; assay type: toxicity, cell-based; conditions: MRC5 cells versus Plasmodium falciparum FCR3, read-out: Ratio IC50
Staphylococcus aureus [6] = assay: Antimicrobial activity against Staphylococcus aureus KB210 ATCC 6538P assessed as reduction in bacterial growth incubated for 1 to 2 days by paper disc method; assay type: functional, organism-based; conditions: time 1-2 day
Plasmodium falciparum [7] = assay: Antiplasmodial activity against chloroquine-sensitive Plasmodium falciparum FCR3 assessed as parasite growth inhibition; assay type: functional, organism-based
Xanthomonas oryzae = assay: Antimicrobial activity against Xanthomonas oryzae KB88 assessed as reduction in bacterial growth incubated for 1 to 2 days by paper disc method; assay type: functional, organism-based; conditions: time 1-2 day
Escherichia coli = assay: Antimicrobial activity against Escherichia coli KB213 NIHJ assessed as reduction in bacterial growth incubated for 1 to 2 days by paper disc method; assay type: functional, organism-based; conditions: time 1-2 day
Candida albicans = assay: Antimicrobial activity against Candida albicans KF assessed as reduction in […] growth KF1 ATCC 64584 incubated for 1 to 2 days by paper disc method; assay type: functional, organism-based; conditions: time 1-2 day
Plasmodium falciparum [8] = assay: Antiplasmodial activity against chloroquine-resistant Plasmodium falciparum K1 assessed as parasite growth inhibition; assay type: functional, organism-based
Kocuria rhizophila [9] = assay: Antimicrobial activity against Kocuria rhizophila KB212 ATCC 9341 assessed as reduction in bacterial growth incubated for 1 to 2 days by paper disc method; assay type: functional, organism-based; conditions: time 1-2 day
Staphylococcus aureus [10] = assay: Antimicrobial activity against Staphylococcus aureus KB210 ATCC 6538P at > 10 ug incubated for 1 to 2 days by paper disc method; assay type: functional, organism-based; conditions: dose > 10.0 µg, time 1-2 day
[11] = Selectivity index, ratio of IC50 for cytotoxicity against human MRC5 cells assessed as inhibition of cell growth to IC50 for antiplasmodial activity against chloroquine-resistant Plasmodium falciparum K1 assessed as parasite growth inhibition; assay type: toxicity, cell-based; conditions: MRC5 cells versus Plasmodium falciparum K1, read-out: Ratio IC50
HeLa S3 = assay: Cytotoxicity against human HeLa S3 cells assessed as reduction in cell growth incubated for 3 days; assay type: functional, cell-based; conditions: HeLa S3, 72 h
B16 = assay: Cytotoxicity against mouse B16 cells assessed as reduction in cell growth incubated for 3 days; assay type: functional, cell-based; conditions: B16, 72 h
[12] = Acute toxicity in ICR mouse assessed as sedation at 60 mg/kg, ip and measured for 2 hrs; assay type: organism-based; conditions: in vivo
Plasmodium berghei = assay: Antiplasmodial activity against Plasmodium berghei infected in ICR mouse model assessed as reduction in parasitaemia at 5 mg/kg, ip measured for 4 days by peters 4 day suppressive test; assay type: functional; set-up: scale not given: the % may be the effect or the level left
[13] = Toxicity in ICR mouse assessed as body weight loss at 5 mg/kg, ip measured for 4 days; assay type: organism-based; conditions: in vivo, 96 h, time 4 day
Kocuria rhizophila [14] = assay: Antimicrobial activity against Kocuria rhizophila KB212 ATCC 9341 at 30 ug incubated for 1 to 2 days by paper disc method; assay type: functional, organism-based; conditions: dose 30.0 µg, time 1-2 day
Plasmodium falciparum [15] = assay: Antiplasmodial activity against Plasmodium falciparum Dd2 assessed as inhibition of parasite growth; assay type: functional, organism-based

Row | SMILES | IC50 [1] | selectivity ratio [5] | Activity (Staphylococcus aureus [6]) | IC50 (Plasmodium falciparum [7]) | Activity (Xanthomonas oryzae) | Activity (Escherichia coli) | Activity (Candida albicans) | IC50 (Plasmodium falciparum [8]) | Activity (Kocuria rhizophila [9]) | Activity (Staphylococcus aureus [10]) | selectivity ratio [11] | Activity (Plasmodium berghei) | Activity [13] | other results
1 | C[C@@H]1CC[C@H]2[C@@H](C)C(=O)O[C@@H]3O[C@@]4(C)CC[C@@H]1[C@]32OO4 [ARTEMISININ] | > 25 µM | – | – | – | – | – | – | – | – | – | – | – | – | selectivity ratio [2]: > 800; selectivity ratio [3]: > 800; IC50 (Plasmodium falciparum [4]): 0.03 µM
2 | C=CC(C)(C)c1c(O)cc2c(c1O)C(=O)[C@@](C)(O)[C@H](CC=C(C)C)C2=O | 94.2 µM | 1.8 | Active | 51.2 µM | Active | Active | Active | 43.3 µM | Active | Active | 2.2 | – | – | –
3 | COC1=C(C)C(=O)c2c(cc(O)c3c2O[C@H](C)[C@]3(C)CCC=C(C)C)C1=O | – | – | – | – | – | – | – | – | – | – | – | – | – | IC50 (HeLa S3): 1.22 µg/mL (≈ 3.29 µM); IC50 (B16): 0.63 µg/mL (≈ 1.7 µM)
4 | C=CC(C)(C)c1c(O)cc2c(c1O)C(=O)[C@@]1(C)O[C@@]1(CC=C(C)C)C2=O | 0.7 µM | 8.8 | Active | 0.08 µM | Active | Active | Active | 0.2 µM | Active | Active | 3.5 | 47.6% | Non-Toxic | Activity [12]: Non-Toxic
5 | C[C@H]1[C@H](OC(=O)CCC(=O)O)O[C@@H]2O[C@@]3(C)CC[C@H]4[C@H](C)CC[C@@H]1[C@@]24OO3 [ARTESUNATE] | – | – | – | – | – | – | – | – | – | – | – | 94.2% | Non-Toxic | –
6 | COC1=C(C)C(=O)c2c(cc3c(c2O)C(C)(CCC=C(C)C)C(C)O3)C1=O (centres undefined) | 1.7 µM | 28.3 | Active | 0.06 µM | Active | Active | Active | 0.3 µM | Active | – | 5.7 | 43.1% | Non-Toxic | Activity (Kocuria rhizophila [14]): inactive
7 | C=CC(C)(C)c1c(O)cc2c(c1O)C(=O)[C@@](C)(O)[C@@H](CC=C(C)C)C2=O | 68.8 µM | 3.2 | Active | 21.7 µM | Active | Active | Active | 14.5 µM | Active | Active | 4.7 | – | – | –
8 | CC(C)=CCC1=C(O)C(=O)c2c(O)ccc(O)c2C1=O | – | – | – | – | – | – | – | – | – | – | – | – | – | IC50 (Plasmodium falciparum [15]): 0.82 µg/mL (≈ 2.99 µM)
9 | CCN(CC)CCCC(C)Nc1ccnc2cc(Cl)ccc12 (centres undefined) [CHLOROQUINE] | > 25 µM | – | – | – | – | – | – | – | – | – | – | – | – | –
